#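 Interpolation was linear, between the two tested concentrations surrounding the appropriate level; five concentrations were tested over 48 hours in 96-well plates. TGI: total growth inhibition.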
# Key:
# Assay in all cases: NCI tumour cell line growth inhibition, 48 h
# [1] = tested on: EKVX NSCLC
# [2] = tested on: MALME-3M melanoma
# [3] = tested on: MOLT-4 leukemia
# [4] = tested on: DMS 114 small cell lung
# [5] = tested on: UO-31 renal
# [6] = tested on: HT29 colon
# [7] = tested on: SF-295 CNS
# [8] = tested on: NCI-H23 lung
# [9] = tested on: CCRF-CEM leukemia
# [10] = tested on: NCI-H522 lung
# [11] = tested on: LOX IMVI melanoma
# [12] = tested on: CAKI-1 renal
# [13] = tested on: SNB-78 CNS
# [14] = tested on: K-562 leukemia
# [15] = tested on: RPMI-8226 leukemia
# [16] = tested on: ACHN renal
# [17] = tested on: SF-268 CNS
# [18] = tested on: A498 renal
# [19] = tested on: OVCAR-4 ovarian
# [20] = tested on: 786-0 renal
# [21] = tested on: HCC-2998 colon
# [22] = tested on: TK-10 renal
# [23] = tested on: A549 NSCLC
# [24] = tested on: DLD-1 colon
# [25] = tested on: SNB-19 CNS
# [26] = tested on: OVCAR-5 ovarian
# [27] = tested on: HCT-15 colon
# [28] = tested on: RXF-631 renal
# [29] = tested on: SK-MEL-5 melanoma
# [30] = tested on: IGROV1 ovarian
# [31] = tested on: HOP-92 NSCLC
# [32] = tested on: HL-60(TB) leukemia
# [33] = tested on: KM12 colon
# [34] = tested on: COLO 205 colon
# [35] = tested on: SF-539 CNS
# [36] = tested on: SK-MEL-2 melanoma
# [37] = tested on: DMS 273 small cell lung
# [38] = tested on: NCI-H226 lung
# [39] = tested on: NCI-H460 lung
# [40] = tested on: SK-MEL-28 melanoma
# [41] = tested on: HOP-18 NSCLC
# [42] = tested on: HCT-116 colon
# [43] = tested on: OVCAR-8 ovarian
# [44] = tested on: SN12C renal
# [45] = tested on: LXFL 529 NSCLC
# [46] = tested on: M14 melanoma
# [47] = tested on: SW-620 colon
# [48] = tested on: SK-OV-3 ovarian
# [49] = tested on: UACC-257 melanoma
# [50] = tested on: SNB-75 CNS
# [51] = tested on: KM20L2 colon
# [52] = tested on: OVCAR-3 ovarian
# [53] = tested on: UACC-62 melanoma
# [54] = tested on: HOP-62 NSCLC
# [55] = tested on: U251 CNS
# [56] = tested on: RXF 393 renal
# [57] = tested on: M19-MEL melanoma
# [58] = tested on: SR leukemia
# [59] = tested on: XF 498 CNS
smiles,measurement,setting,value
CC(C)C(=O)N1Cc2cc(Cl)cc(Cl)c2OC(=O)c2ccccc21,TGI,[1],67.2 µM
same,TGI,[2],49.3 µM
same,TGI,[3],62 µM
same,TGI,[4],74 µM
same,TGI,[5],> 100 µM
same,TGI,[6],> 100 µM
same,TGI,[7],> 100 µM
same,TGI,[8],> 100 µM
same,TGI,[9],94.7 µM
same,TGI,[10],40.9 µM
same,TGI,[11],59 µM
same,TGI,[12],64 µM
same,TGI,[13],> 100 µM
same,TGI,[14],> 100 µM
same,TGI,[15],96.8 µM
same,TGI,[16],72.9 µM
same,TGI,[17],41.5 µM
same,TGI,[18],97.9 µM
same,TGI,[19],74 µM
same,TGI,[20],> 100 µM
same,TGI,[21],60.3 µM
same,TGI,[22],> 100 µM
same,TGI,[23],> 100 µM
same,TGI,[24],> 100 µM
same,TGI,[25],> 100 µM
same,TGI,[26],90 µM
same,TGI,[27],85.9 µM
same,TGI,[28],> 100 µM
same,TGI,[29],38.3 µM
same,TGI,[30],81 µM
same,TGI,[31],62.7 µM
same,TGI,[32],57.6 µM
same,TGI,[33],> 100 µM
same,TGI,[34],> 100 µM
same,TGI,[35],35.4 µM
same,TGI,[36],50 µM
same,TGI,[37],> 100 µM
same,TGI,[38],58.7 µM
same,TGI,[39],> 100 µM
same,TGI,[40],> 100 µM
same,TGI,[41],93.1 µM
same,TGI,[42],> 100 µM
same,TGI,[43],> 100 µM
same,TGI,[44],> 100 µM
same,TGI,[45],34.3 µM
same,TGI,[46],61.7 µM
same,TGI,[47],94.9 µM
same,TGI,[48],84.5 µM
same,TGI,[49],32.8 µM
same,TGI,[50],96.5 µM
same,TGI,[51],57.8 µM
same,TGI,[52],60.8 µM
same,TGI,[53],42.2 µM
same,TGI,[54],> 100 µM
O=C(Nc1cccc2c1C(=O)c1c(NC(=O)c3ccccc3)ccc(Nc3cccc4c3C(=O)c3ccccc3C4=O)c1C2=O)c1ccccc1,TGI,[1],> 100 µM
same,TGI,[2],> 100 µM
same,TGI,[3],> 100 µM
same,TGI,[55],> 100 µM
same,TGI,[4],> 100 µM
same,TGI,[5],> 100 µM
same,TGI,[56],> 100 µM
same,TGI,[9],> 100 µM
same,TGI,[10],> 100 µM
same,TGI,[12],> 100 µM
same,TGI,[13],> 100 µM
same,TGI,[14],> 100 µM
same,TGI,[15],> 100 µM
same,TGI,[16],> 100 µM
same,TGI,[17],> 100 µM
same,TGI,[18],> 100 µM
same,TGI,[19],> 100 µM
same,TGI,[20],> 100 µM
same,TGI,[21],> 100 µM
same,TGI,[22],> 100 µM
same,TGI,[23],> 100 µM
same,TGI,[24],> 100 µM
same,TGI,[25],> 100 µM
same,TGI,[27],> 100 µM
same,TGI,[28],> 100 µM
same,TGI,[29],> 100 µM
same,TGI,[30],> 100 µM
same,TGI,[32],> 100 µM
same,TGI,[33],> 100 µM
same,TGI,[34],> 100 µM
same,TGI,[35],> 100 µM
same,TGI,[36],> 100 µM
same,TGI,[37],> 100 µM
same,TGI,[38],> 100 µM
same,TGI,[39],> 100 µM
same,TGI,[40],> 100 µM
same,TGI,[57],> 100 µM
same,TGI,[41],> 100 µM
same,TGI,[42],> 100 µM
same,TGI,[43],> 100 µM
same,TGI,[58],> 100 µM
same,TGI,[44],> 100 µM
same,TGI,[45],> 100 µM
same,TGI,[46],> 100 µM
same,TGI,[47],> 100 µM
same,TGI,[48],> 100 µM
same,TGI,[49],> 100 µM
same,TGI,[50],> 100 µM
same,TGI,[51],> 100 µM
same,TGI,[52],> 100 µM
same,TGI,[53],> 100 µM
same,TGI,[54],> 100 µM
CNC(=O)NCNC(=O)NC,TGI,[1],> 100 µM
same,TGI,[2],> 100 µM
same,TGI,[3],> 100 µM
same,TGI,[55],> 100 µM
same,TGI,[4],> 100 µM
same,TGI,[6],> 100 µM
same,TGI,[7],> 100 µM
same,TGI,[8],> 100 µM
same,TGI,[9],> 100 µM
same,TGI,[11],> 100 µM
same,TGI,[12],> 100 µM
same,TGI,[13],> 100 µM
same,TGI,[14],> 100 µM
same,TGI,[15],> 100 µM
same,TGI,[18],> 100 µM
same,TGI,[19],> 100 µM
same,TGI,[20],> 100 µM
same,TGI,[21],> 100 µM
same,TGI,[22],> 100 µM
same,TGI,[23],> 100 µM
same,TGI,[24],> 100 µM
same,TGI,[26],> 100 µM
same,TGI,[27],> 100 µM
same,TGI,[28],> 100 µM
same,TGI,[29],> 100 µM
same,TGI,[30],> 100 µM
same,TGI,[31],> 100 µM
same,TGI,[32],> 100 µM
same,TGI,[33],> 100 µM
same,TGI,[34],> 100 µM
same,TGI,[35],> 100 µM
same,TGI,[36],> 100 µM
same,TGI,[37],> 100 µM
same,TGI,[39],> 100 µM
same,TGI,[40],> 100 µM
same,TGI,[57],> 100 µM
same,TGI,[41],> 100 µM
same,TGI,[42],> 100 µM
same,TGI,[43],> 100 µM
same,TGI,[45],> 100 µM
same,TGI,[46],> 100 µM
same,TGI,[47],> 100 µM
same,TGI,[48],> 100 µM
same,TGI,[49],> 100 µM
same,TGI,[50],> 100 µM
same,TGI,[51],> 100 µM
same,TGI,[52],> 100 µM
same,TGI,[53],> 100 µM
same,TGI,[54],> 100 µM
NCCSc1cc(O)c2c(c1N)C(=O)c1ccccc1C2=O,TGI,[1],> 100 µM
same,TGI,[2],75.5 µM
same,TGI,[3],63.8 µM
same,TGI,[55],> 100 µM
same,TGI,[5],> 100 µM
same,TGI,[6],> 100 µM
same,TGI,[7],> 100 µM
same,TGI,[56],91.1 µM
same,TGI,[8],> 100 µM
same,TGI,[9],43.1 µM
same,TGI,[10],39.7 µM
same,TGI,[12],> 100 µM
same,TGI,[13],> 100 µM
same,TGI,[14],69.1 µM
same,TGI,[16],> 100 µM
same,TGI,[17],> 100 µM
same,TGI,[18],> 100 µM
same,TGI,[19],> 100 µM
same,TGI,[20],> 100 µM
same,TGI,[21],> 100 µM
same,TGI,[22],> 100 µM
same,TGI,[23],> 100 µM
same,TGI,[24],> 100 µM
same,TGI,[25],> 100 µM
same,TGI,[26],> 100 µM
same,TGI,[27],> 100 µM
same,TGI,[28],97.1 µM
same,TGI,[29],33.4 µM
same,TGI,[30],65.9 µM
same,TGI,[31],> 100 µM
same,TGI,[32],66.8 µM
same,TGI,[33],> 100 µM
same,TGI,[35],> 100 µM
same,TGI,[36],> 100 µM
same,TGI,[39],> 100 µM
same,TGI,[40],> 100 µM
same,TGI,[57],73.6 µM
same,TGI,[42],> 100 µM
same,TGI,[43],> 100 µM
same,TGI,[58],73.4 µM
same,TGI,[59],49.5 µM
same,TGI,[44],> 100 µM
same,TGI,[45],> 100 µM
same,TGI,[46],> 100 µM
same,TGI,[47],> 100 µM
same,TGI,[48],> 100 µM
same,TGI,[50],> 100 µM
same,TGI,[51],> 100 µM
same,TGI,[52],> 100 µM
same,TGI,[53],> 100 µM
same,TGI,[54],> 100 µM

# Source: PubChem BioAssay (NCI)
